pIC50: −log10 of the molar value.
Key:
Format in all cases: biochemical
human DNA polymerase β = biological target: T1, human DNA polymerase β (Homo sapiens, UniProt P06746); test: Human DNA polymerase β DdDp assay
T1 construct: purchased CHIMERx 1077-1
Experimental: (§1) The DNA-dependent DNA polymerization (DdDp) activity of human DNA polymerases α, β, and γ was measured as described previously. Briefly, the assays were run with 5 U/mL recombinant DNA polymerase α (CHIMERx, cat#1075-1), 0.5 U/mL recombinant DNA polymerase β (CHIMERx, cat#1077-1), or 0.1 μg/mL recombinant DNA polymerase γ (Abcam, cat#196066), 62 μg/mL activated calf thymus DNA, 50 mM Tris-HCl (pH 8.0), 60 mM KCl, 5 mM MgCl2, 4 mM dithiothreitol (DTT), 0.1 mg/mL BSA, 2 μM dCTP, 2 μM dATP, 2 μM dGTP, 0.05 μCi/μL ^3H-dTTP (Perkin Elmer) and compounds at various concentrations at 30 °C for 2 h. The 50 μL reactions were processed following the same filter plate method as described above for HIV-1 RT. Acid-precipitated tritiated DNA products retained on the filters were detected by a Trilux MicroBeta scintillation reader (Perkin Elmer). All data were analyzed as described above for HIV-1 RT.

human DNA polymerase α = biological target: T2, human DNA polymerase α (Homo sapiens, UniProt P09884); test: Human DNA polymerase α DdDp assay
T2 construct: purchased CHIMERx 1075-1
T2 sequence (P09884 1-1462): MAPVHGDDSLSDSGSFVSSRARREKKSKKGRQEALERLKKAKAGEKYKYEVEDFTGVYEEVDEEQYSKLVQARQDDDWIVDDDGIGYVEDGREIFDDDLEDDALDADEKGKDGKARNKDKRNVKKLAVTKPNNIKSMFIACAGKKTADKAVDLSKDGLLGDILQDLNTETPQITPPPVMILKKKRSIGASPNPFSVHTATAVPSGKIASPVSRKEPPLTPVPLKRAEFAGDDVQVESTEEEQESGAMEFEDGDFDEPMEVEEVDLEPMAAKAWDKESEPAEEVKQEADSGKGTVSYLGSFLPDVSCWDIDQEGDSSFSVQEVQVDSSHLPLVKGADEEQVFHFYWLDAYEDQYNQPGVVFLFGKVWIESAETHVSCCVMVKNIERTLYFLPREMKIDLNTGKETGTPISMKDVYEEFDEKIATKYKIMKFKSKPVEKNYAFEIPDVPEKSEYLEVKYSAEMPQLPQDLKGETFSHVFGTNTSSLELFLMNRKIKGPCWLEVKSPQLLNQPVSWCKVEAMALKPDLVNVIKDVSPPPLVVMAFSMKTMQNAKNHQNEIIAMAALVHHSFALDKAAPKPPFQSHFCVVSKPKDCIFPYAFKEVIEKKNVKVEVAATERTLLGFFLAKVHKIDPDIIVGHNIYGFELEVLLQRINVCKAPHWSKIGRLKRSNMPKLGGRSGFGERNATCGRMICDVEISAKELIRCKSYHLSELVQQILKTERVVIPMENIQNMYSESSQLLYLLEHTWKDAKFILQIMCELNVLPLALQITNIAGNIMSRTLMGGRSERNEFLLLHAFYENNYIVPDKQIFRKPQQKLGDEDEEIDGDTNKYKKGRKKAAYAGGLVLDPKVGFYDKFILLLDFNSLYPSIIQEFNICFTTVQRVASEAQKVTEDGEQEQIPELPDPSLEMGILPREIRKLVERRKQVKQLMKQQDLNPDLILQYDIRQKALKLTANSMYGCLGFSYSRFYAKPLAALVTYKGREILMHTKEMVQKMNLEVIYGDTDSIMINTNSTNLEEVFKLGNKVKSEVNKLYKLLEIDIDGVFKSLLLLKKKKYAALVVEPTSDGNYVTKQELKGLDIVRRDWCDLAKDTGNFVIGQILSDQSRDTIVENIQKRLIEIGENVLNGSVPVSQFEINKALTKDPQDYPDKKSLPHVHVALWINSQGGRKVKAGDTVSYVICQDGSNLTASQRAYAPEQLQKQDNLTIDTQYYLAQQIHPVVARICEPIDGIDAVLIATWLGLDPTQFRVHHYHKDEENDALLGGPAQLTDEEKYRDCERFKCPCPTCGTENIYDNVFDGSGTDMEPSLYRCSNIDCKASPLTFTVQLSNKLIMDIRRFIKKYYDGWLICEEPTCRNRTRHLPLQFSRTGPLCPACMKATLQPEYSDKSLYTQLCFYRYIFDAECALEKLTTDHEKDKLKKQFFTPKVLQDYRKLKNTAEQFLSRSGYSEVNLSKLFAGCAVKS
Experimental: as §1

HBV polymerase = biological target: T3, HBV polymerase (Hepatitis B virus genotype D subtype ayw, UniProt P03156); test: HBV polymerase RdDp activity assay; conditions: read-out: HBV pol IC50
T3 construct: Recombinant HBV polymerase (Hepatitis B virus genotype D subtype ayw, full length); made in house; host or cells: Sf9 insect cells (baculovirus)
T3 sequence (P03156 whole entry): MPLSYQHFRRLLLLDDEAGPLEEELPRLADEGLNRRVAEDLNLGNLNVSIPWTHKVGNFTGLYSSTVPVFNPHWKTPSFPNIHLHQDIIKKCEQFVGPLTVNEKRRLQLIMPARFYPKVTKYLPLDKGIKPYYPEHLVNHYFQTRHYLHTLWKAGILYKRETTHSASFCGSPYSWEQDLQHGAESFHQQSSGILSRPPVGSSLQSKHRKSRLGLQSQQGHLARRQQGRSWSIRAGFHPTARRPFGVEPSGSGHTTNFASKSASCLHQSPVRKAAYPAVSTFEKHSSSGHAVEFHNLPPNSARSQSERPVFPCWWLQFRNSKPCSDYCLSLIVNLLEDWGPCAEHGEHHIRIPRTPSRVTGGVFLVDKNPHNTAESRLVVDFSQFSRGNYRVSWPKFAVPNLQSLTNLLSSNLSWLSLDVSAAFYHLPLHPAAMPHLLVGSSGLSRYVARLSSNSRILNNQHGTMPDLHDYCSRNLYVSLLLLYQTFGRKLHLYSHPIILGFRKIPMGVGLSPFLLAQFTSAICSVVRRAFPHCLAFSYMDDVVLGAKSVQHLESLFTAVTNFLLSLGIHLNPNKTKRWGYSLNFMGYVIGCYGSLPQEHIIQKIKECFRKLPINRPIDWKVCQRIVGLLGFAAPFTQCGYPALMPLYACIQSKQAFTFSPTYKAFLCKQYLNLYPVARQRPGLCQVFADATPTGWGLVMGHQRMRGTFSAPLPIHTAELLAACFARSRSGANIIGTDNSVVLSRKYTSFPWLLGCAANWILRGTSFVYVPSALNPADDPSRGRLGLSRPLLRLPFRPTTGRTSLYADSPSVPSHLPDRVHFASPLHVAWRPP
Text: HIV-1 reverse transcriptase (HIV-1 RT) was purchased from Abcam (cat#ab63979). Recombinant HBV polymerase (Hepatitis B virus genotype D subtype ayw, full length) was cloned using the baculovirus system, expressed in sf9 cells, and purified with similar strategy and methods described by Lanford et al.. A DNA primer (5′-[…]-3′) was synthesized by IDTDNA and a 358-nt RNA template was synthesized in-house using Megascript T7 transcription kit (ThermoFisher, cat#AM1334). dNTPs were purchased from Thermo Fisher and ^3H-dTTP from Perkin Elmer. Filter plates were purchased from Millipore (cat#MABN0V050) and microscint-20 was purchased from Perkin Elmer (cat#6013621).
The RdDp activity of HBV polymerase was measured similarly as described for the HIV-1 RT. To test compound inhibition effect, the reactions were performed at 30 °C for 120 min in a reaction mixture containing reaction buffer (50 mM Tris-Cl, pH 7.5, 100 mM KCl, 12.5 mM MgCl2, 4 mM DTT), 15 µg/mL polymerase, 0.5 µM DNA primer, 0.05 µM RNA template, 10% DMSO, 0.046 µM dATP, 0.057 µM dGTP, 0.017 µM dCTP, 0.32 µM ^3H-dTTP, and compounds at various concentrations.
All data were analyzed with GraphPad Prism. […]

Nc1ncnc2c1ncn2[C@@H]1OC[C@](F)(COP(=O)(O)OP(=O)(O)OP(=O)(O)O)[C@H]1CO [Compound 38, ((3S,4S,5R)-5-(6-Amino-9H-purin-9-yl)-3-fluoro-4-(hydroxymethyl)tetrahydrofuran-3-yl)methyl triphosphate]
pIC50 (human DNA polymerase β): < 4.00
pIC50 (human DNA polymerase α): 4.10
inhibition of human DNA polymerases (human DNA polymerase α; human DNA polymerases α, β and γ together): low or no inhibition activity against human DNA polymerases
pIC50 (HBV polymerase): 6.92

Reference: article PMC9025269, “Synthesis and Anti-Hepatitis B Activities of 3′-Fluoro-2′-Substituted Apionucleosides” (Molecules, 2022)
